Assay results reported in ChEMBL document CHEMBL3885881, “DrugMatrix”.

Species on record: Rattus norvegicus
Assay: DrugMatrix - Regimen: Daily Repeat
Format: toxicity, organism-based, Sprague-Dawley
Parameters: regimen Daily Repeat, gender Male, age 6-8 weeks
Settings: in vivo, po, 0 mg/kg, route oral GAVAGE, dose level Control, vehicle .5 % CMC; for BASOPHIL / EOSINOPHIL / ERYTHROCYTE COUNT / HEMATOCRIT / HEMOGLOBIN / LEUKOCYTE COUNT / LYMPHOCYTE / MEAN CORPUSCULAR HEMOGLOBIN / MEAN CORPUSCULAR HEMOGLOBIN CONCENTRATION / MEAN CORPUSCULAR VOLUME / MONOCYTE / NEUTROPHIL / PLATELET COUNT: tissue Blood; for ALANINE AMINOTRANSFERASE / ALBUMIN / ALKALINE PHOSPHATASE / ASPARTATE AMINOTRANSFERASE / BLOOD UREA NITROGEN / CHLORIDE / CHOLESTEROL / CREATINE PHOSPHOKINASE / CREATININE / GLUCOSE / PHOSPHORUS / POTASSIUM / SODIUM / TOTAL BILIRUBIN / TOTAL PROTEIN: tissue Plasma

## Clc1ccccc1CN1CCc2sccc2C1 [TICLOPIDINE]
72 h, time 3 day
  BASOPHIL: 0%
  EOSINOPHIL: 0%
  ERYTHROCYTE COUNT: 6.19 x10E6/uL
  HEMATOCRIT: 36.94%
  HEMOGLOBIN: 14.58 G/DL
  LEUKOCYTE COUNT: 11.54 x10E3/uL
  LYMPHOCYTE: 84.8%
  MEAN CORPUSCULAR HEMOGLOBIN: 23.58 pg
  MEAN CORPUSCULAR HEMOGLOBIN CONCENTRATION: 39.44 G/DL
  MEAN CORPUSCULAR VOLUME: 59.76 fL
  MONOCYTE: 1.4%
  NEUTROPHIL: 13.8%
  PLATELET COUNT: 1068.8 x10E3/uL
  ALANINE AMINOTRANSFERASE: 38.17 u/L
  ALBUMIN: 3.88 G/DL
  ALKALINE PHOSPHATASE: 391.33 u/L
  ASPARTATE AMINOTRANSFERASE: 69.83 u/L
  BLOOD UREA NITROGEN: 15 mg/dL
  CHLORIDE: 104.17 MEQ/L
  CHOLESTEROL: 72.17 mg/dL
  CREATINE PHOSPHOKINASE: 174.33 u/L
  CREATININE: 0.58 mg/dL
  GLUCOSE: 192.67 mg/dL
  PHOSPHORUS: 10.52 mg/dL
  POTASSIUM: 6.8 MEQ/L
  SODIUM: 149.67 MEQ/L
  TOTAL BILIRUBIN: 0.78 mg/dL
  TOTAL PROTEIN: 6.28 G/DL
120 h, time 5 day
  BASOPHIL: 0%
  EOSINOPHIL: 0.17%
  ERYTHROCYTE COUNT: 6.72 x10E6/uL
  HEMATOCRIT: 40.02%
  HEMOGLOBIN: 15.83 G/DL
  LEUKOCYTE COUNT: 9.5 x10E3/uL
  LYMPHOCYTE: 87.17%
  MEAN CORPUSCULAR HEMOGLOBIN: 23.57 pg
  MEAN CORPUSCULAR HEMOGLOBIN CONCENTRATION: 39.62 G/DL
  MEAN CORPUSCULAR VOLUME: 59.55 fL
  MONOCYTE: 1.67%
  NEUTROPHIL: 11%
  PLATELET COUNT: 1053.67 x10E3/uL
  ALANINE AMINOTRANSFERASE: 26.33 u/L
  ALBUMIN: 4.02 G/DL
  ALKALINE PHOSPHATASE: 316.67 u/L
  ASPARTATE AMINOTRANSFERASE: 61.33 u/L
  BLOOD UREA NITROGEN: 18.67 mg/dL
  CHLORIDE: 108 MEQ/L
  CHOLESTEROL: 65.17 mg/dL
  CREATINE PHOSPHOKINASE: 161.17 u/L
  CREATININE: 0.75 mg/dL
  GLUCOSE: 177.33 mg/dL
  PHOSPHORUS: 9.72 mg/dL
  POTASSIUM: 6.18 MEQ/L
  SODIUM: 150.5 MEQ/L
  TOTAL BILIRUBIN: 0.68 mg/dL
  TOTAL PROTEIN: 6.55 G/DL
